Data: ChEMBL document CHEMBL1157528, “Mixed tetraoxanes containing the acetone subunit as antimalarials” (Bioorg Med Chem, 2008)
Activity calls are given as the source filed them. The calls are words filed in the database; no cut-off is given here.

Assays:
[1] = test system: Plasmodium falciparum; assay: microbe, parasite or virus in culture; details: RCS
Description: Antimalarial activity against chloroquine-resistant, mefloquine-sensitive Plasmodium falciparum RCS

[2] = test system: Plasmodium falciparum; assay: microbe, parasite or virus in culture; details: TM91C235
Description: Antimalarial activity against mefloquine, chloroquine and quinine-resistant Plasmodium falciparum TM91C235

[3] = test system: Plasmodium falciparum; assay: microbe, parasite or virus in culture; details: D6
Description: Antimalarial activity against chloroquine and pyrimethamine-sensitive Plasmodium falciparum D6

[4] = test system: Plasmodium falciparum; assay: microbe, parasite or virus in culture; details: W2
Description: Antimalarial activity against chloroquine and pyrimethamine-resistant Plasmodium falciparum W2

[5] = Cytotoxicity against human NCI60 cells; format: functional
[6] = Metabolic stability in human liver microsomes assessed as half life at 10 uM; format: ADME, Microsome
[7] = Metabolic stability in mouse liver microsomes assessed as half life at 10 uM; format: ADME, Microsome
[8] = test system: Plasmodium berghei; assay: Antimalarial activity as parasite-free survivors at day 31 of Plasmodium berghei KBG173 infected CD1 mice (Mus musculus) at 320 mg/kg/day peroral dose; format: functional, organism-based
[9] = test system: Plasmodium berghei; assay: Antimalarial activity as parasite-free survivors at day 31 of Plasmodium berghei KBG173 infected CD1 mice (Mus musculus) at 20 mg/kg/day peroral dose; format: functional, organism-based
[10] = test system: Plasmodium berghei; assay: Antimalarial activity as survival time in Plasmodium berghei KBG173 infected CD1 mice (Mus musculus) at 320 mg/kg/day peroral dose; format: functional; details: route oral
[11] = test system: Plasmodium berghei; assay: Antimalarial activity as survival time against Plasmodium berghei KBG173 infected CD1 mice (Mus musculus) at 80 mg/kg/day peroral dose 3 - 5 days post infection; format: functional; details: route oral
[12] = test system: Plasmodium berghei; assay: Antimalarial activity as survival time in Plasmodium berghei KBG173 infected CD1 mice (Mus musculus) at 20 mg/kg/day peroral dose; format: functional; details: route oral
[13] = test system: A498; assay: Antiproliferative activity against human A498 cells; format: functional
[14] = test system: Plasmodium falciparum; assay: Relative activity against Plasmodium falciparum W2 as ratio of IC90 to IC50; format: functional
[15] = test system: Plasmodium falciparum; assay: Relative activity against Plasmodium falciparum TM91C235 as fold-lower IC90/IC50 ratio relative to mefloquine

SMILES | IC50 [1] [nM] | IC90 [1] [nM] | IC50 [2] [nM] | IC90 [2] [nM] | IC50 [3] [nM] | IC90 [3] [nM] | IC50 [4] [nM] | IC90 [4] [nM] | GI50 [5] [nM] | LC50 [5] [nM] | TGI [5] [nM] | half-life at 10 µM [6] [h] | half-life at 10 µM [7] [h] | other results
CC(=O)O[C@H]1C[C@H]2[C@@H]([C@H](OC(C)=O)C[C@@H]3CC4(CC[C@@]32C)OOC(C)(C)OO4)[C@@H]2CC[C@H]([C@H](C)CCC(=O)NN)[C@@]12C | 7.03 | 19.5 | 28.5 | 38.1 | 28.1 | 46.3 | 16.4 | 22.9 | – | – | – | – | – | –
CC(=O)O[C@H]1C[C@H]2[C@@H]([C@H](OC(C)=O)C[C@@H]3CC4(CC[C@@]32C)OOC(C)(C)OO4)[C@@H]2CC[C@H]([C@H](C)CCC(=O)N(C)C)[C@@]12C | 7.19 | 14 | 25.1 | 50.9 | 35.5 | 71.5 | 17.3 | 31.6 | 17000 | 75900 | 41700 | 0.817 | 0.283 | –
CC(=O)O[C@H]1C[C@H]2[C@@H]([C@H](OC(C)=O)C[C@@H]3CC4(CC[C@@]32C)OOC(C)(C)OO4)[C@@H]2CC[C@H]([C@H](C)CCC(=O)O)[C@@]12C | – | – | 60.4 | 231 | 46.5 | 96.3 | 36 | 94.7 | 15500 | 75900 | 37200 | > 1 | > 1 | Activity [8]: inactive; Activity [9]: inactive; Survival [10]: 17 days; Survival [11]: 15 days; Survival [12]: 10 days
C[C@H](CCC(N)=O)[C@H]1CC[C@H]2[C@@H]3[C@H](O)C[C@@H]4CC5(CC[C@]4(C)[C@H]3C[C@H](O)[C@]12C)OOC(C)(C)OO5 | 38.7 | 168 | 228 | 498 | 215 | 347 | 153 | 234 | 980 | 11200 | 3800 | > 1 | > 1 | GI50 [13]: 92 nM; TGI [13]: 710 nM; CC50 ([13]; read-out: LC50 (the source's name)): 11500 nM
COC(=O)CC[C@@H](C)[C@H]1CC[C@H]2[C@@H]3[C@H](OC(C)=O)C[C@@H]4CC5(CC[C@]4(C)[C@H]3C[C@H](OC(C)=O)[C@]12C)OOC(C)(C)OO5 | – | – | 26 | 57.3 | 15 | 26.7 | 11.7 | 20.7 | – | – | – | – | – | Activity [8]: inactive; Activity [9]: inactive; Survival [10]: 18 days; Survival [11]: 16 days; Survival [12]: 13 days
CC(=O)O[C@H]1C[C@H]2[C@@H]([C@H](OC(C)=O)C[C@@H]3CC4(CC[C@@]32C)OOC(C)(C)OO4)[C@@H]2CC[C@H]([C@H](C)CCC(N)=O)[C@@]12C | – | – | – | – | 12.2 | – | 9.4 | – | 8710 | 79400 | 34700 | > 1 | > 1 | –
O[C@@H](c1cc(C(F)(F)F)nc2c(C(F)(F)F)cccc12)[C@H]1CCCCN1 [MEFLOQUINE] | 2.33 | 5 | – | – | – | – | – | – | – | – | – | – | – | Ratio [14]: 1.71; fold-lower IC90/IC50 ratio vs mefloquine [15]: 1.5
